The subject of one experiment is CCRF-CEM. Description: Inhibition of human leukemic CEM cell viability. It is filed as functional, cell-based.
The target in experiment [1] is Histone deacetylase. In words: Inhibition of HDAC in human leukemic CEM cells. It is filed as cell-based. Conditions: ccrf-cem.
Experiment [2] deals with Histone deacetylase. In words: Inhibition of HDAC in rat liver homogenate. It is filed as tissue-based.
In another experiment the test system is SUD4. Description: Inhibition of human lymphoma SUD4 cell viability. It is filed as functional, cell-based. To be noted: SU-DHL-4.
For another experiment, the system named is HCT-116. Description: Inhibition of human colorectal cancer HCT116 cell viability. It is filed as functional, cell-based.
Another experiment concerns MCF7. Description: Inhibition of human breast cancer MCF7 cell viability. It is filed as functional, cell-based.

The record followed here is ChEMBL document CHEMBL1147749, “Aromatic sulfide inhibitors of histone deacetylase based on arylsulfinyl-2,4-hexadienoic acid hydroxyamides” (J Med Chem, 2006).

For orientation: IC50 means the point on the concentration scale where inhibition reaches its midpoint. For `COc1ccc([S+]([O-])C/C=C/C=C/C(=O)NO)cc1` (centres undefined), the IC50 with CCRF-CEM is 9600 nM; against Histone deacetylase [1], 5400 nM; at Histone deacetylase [2], 410 nM.
Take `O=C(/C=C/C=C/CSc1ccccc1)NO`: the IC50 on Histone deacetylase [1] is above 25000 nM; on Histone deacetylase [2] it was 390 nM.
Regarding `CN(C)c1ccc(Sc2cccc(/C=C/C(=O)NO)c2)cc1`, the IC50 is 3400 nM with CCRF-CEM, 8600 nM against Histone deacetylase [1] and 160 nM on Histone deacetylase [2].
`CN(C)c1ccc([S+]([O-])CCCCCC(=O)NO)cc1` (centres undefined) displayed an IC50 against Histone deacetylase [2] of 180 nM.
In turn, `CN(C)c1ccc2sc(/C=C/C=C/C(=O)NO)cc2c1` returned an IC50 against Histone deacetylase [2] above 25000 nM.
The same measure, in the same setting: under `O=C(CCCCCC[S+]([O-])c1ccc(Cl)cc1)NO` (centres undefined) stands 380 nM.
With `O=C(CCCCC[S+]([O-])c1ccc(Cl)cc1)NO` (centres undefined), the IC50 turned out to be 7500 nM with SUD4, 3900 nM in the experiment with HCT-116 and 6100 nM in the experiment with MCF7.
`O=C(CCCCCSc1ccc(NS(=O)(=O)c2ccc(Cl)cc2)cc1)NO`: the IC50 at Histone deacetylase [2] worked out at 110 nM.
For `O=C(/C=C/C=C/CSc1ccc2ccccc2c1)NO`, the results for the IC50 in the experiment on CCRF-CEM, on Histone deacetylase [1] and against Histone deacetylase [2] were 1700 nM, 9400 nM and 700 nM, respectively.
At Histone deacetylase [2], `O=C(CCCCCS(=O)(=O)c1ccccc1)NO` registered a half-inhibitory concentration (IC50) of 40 nM.
Turning to `O=C(/C=C/C=C/C[S+]([O-])c1ccccc1)NO` (centres undefined), the IC50 on Histone deacetylase [1] was above 25000 nM; against Histone deacetylase [2], 240 nM.
Take `O=C(/C=C/C=C/C[S+]([O-])c1ccc(Cl)cc1)NO` (centres undefined): the values for the IC50 against Histone deacetylase [1] and on Histone deacetylase [2] were 1200 nM and 400 nM, respectively.
On the same counts, the results for `O=C(CCCCC[S+]([O-])c1ccccc1)NO` (centres undefined) are 7700 nM and 60 nM.
Regarding `O=C(CCCCCSc1ccc(Cl)cc1)NO`, the IC50 on Histone deacetylase [1] was above 25000 nM; at Histone deacetylase [2] it was 260 nM.
For `CC(/C=C/C(=O)NO)=C\C(C)Sc1ccc(N(C)C)cc1` (centres undefined), the IC50 turned out to be 7500 nM in the experiment with CCRF-CEM, 5300 nM on Histone deacetylase [1] and 340 nM on Histone deacetylase [2].
On the same counts, the results for `O=C(/C=C/C=C/CSc1ccc(Cl)cc1)NO` are 1600 nM, 1600 nM and 310 nM.
`O=C(CCCCCSc1ccccc1)NO` yielded an IC50 at Histone deacetylase [2] of 120 nM.
